According to patent US20240254129A1, “HETEROCYCLIC COMPOUNDS AND USES THEREOF” (Kumquat Biosciences Inc., priority 2021, published 2024):

What was measured:
[1] = molecular target: GST-tagged K-Ras mutant / His-tagged hSOS1 (Homo sapiens, UniProt P01116); assay: HTRF assay, K-Ras mutant / SOS1 interaction; type: binding; details: compound nos. 102-196, general methodology of example 5; read-out: IC50 against mutant Kras
From the text: (§1) This assay can be also used to assess a selective inhibition of a mutant Ras protein relative to a wildtype, or relative to a different mutant Ras protein. For example, the equilibrium interaction of wildtype Kras or K-Ras mutant (e.g., wildtype or a mutant thereof including those mentioned in Example 6) with SOS1 (e.g., hSOS1) can be assessed as a proxy or an indication for a subject compound's ability to bind and inhibit Ras protein. HTRF assay detects from (i) a fluorescence resonance energy transfer (FRET) donor (e.g., antiGST-Europium) that is bound to GST-tagged K-Ras mutant to (ii) a FRET acceptor (e.g., anti-6His-XL665) bound to a His-tagged hSOS1.
(§2) The assay buffer can contain ˜5 mM HEPES pH 7.4, ˜150 mM NaCl, ˜ 1 mM DTT, 0.05% BSA and 0.0025% (v/v) Igepal. A Ras working solution is prepared in an assay buffer containing typically a suitable amount of the protein construct (e.g., GST-tagged K-Ras mutant) and the FRET donor (e.g., antiGST-Eu(K) from Cisbio, France). A SOS1 working solution is prepared in an assay buffer containing suitable amount of the protein construct (e.g., His-hSOS1) and the FRET acceptor (e.g., anti-6His-XL665 from Cisbio, France). A suitable amount of the protein construct will depend on the range of activity or range of IC50 values being detected or under investigation. For detecting IC50 within a range of 500 nM, the protein constructs of the same range of molarity can be utilized.
(§3) A fixed volume of DMSO with or without test compound is transferred into a 384-well plate. Ras working solution is added to all wells of the test plate. SOS1 working solution is added to all wells except for those that are subsequently filled the inhibitor control solution. Upon incubation for about 10 minutes or longer, the fluorescence is measured with a M1000Pro plate reader (Tecan) using HTRF detection (excitation 337 nm, emission 1: 620 nm, emission 2: 665 nm). Compounds are tested in duplicates at different concentrations (for example, 10 μM, 2.5 μM, 0.63 μM, 0.16 μM, 0.04 µM, 0.01 μM test compound). The ratiometric data (i.e., emission 2 divided by emission 1) is used to calculate IC50 values against Ras using GraphPad Prism (GraphPad software). Following this general procedure, samples were tested with or without a subject compound disclosed herein including compounds exemplified in Table 1 to assess their abilities to inhibit K-Ras signaling or their respective IC50 values against a given Ras protein (e.g., a given mutant K-Ras) of interest.

wildtype Kras / hSOS1 = molecular target: T1, wildtype Kras / hSOS1 (Homo sapiens, UniProt P01116); assay: HTRF assay, wildtype Kras / SOS1 interaction; type: binding; details: compound nos. 102-196, general methodology of example 5; read-out: IC50 against wildtype Kras
T1 construct: made in house; host or cells: E. coli BL21 (DE3)
From the text: as §1, §2, §3

T1 sequence (P01116 1-188 isoform P01116-2): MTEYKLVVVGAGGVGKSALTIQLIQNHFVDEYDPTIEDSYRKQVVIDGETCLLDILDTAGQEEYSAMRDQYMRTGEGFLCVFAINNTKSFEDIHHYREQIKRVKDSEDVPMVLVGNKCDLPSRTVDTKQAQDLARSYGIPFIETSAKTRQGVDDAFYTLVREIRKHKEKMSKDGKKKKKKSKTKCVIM
Sequence of GST-tagged K-Ras mutant / His-tagged hSOS1 (P01116 whole entry G12D, form open): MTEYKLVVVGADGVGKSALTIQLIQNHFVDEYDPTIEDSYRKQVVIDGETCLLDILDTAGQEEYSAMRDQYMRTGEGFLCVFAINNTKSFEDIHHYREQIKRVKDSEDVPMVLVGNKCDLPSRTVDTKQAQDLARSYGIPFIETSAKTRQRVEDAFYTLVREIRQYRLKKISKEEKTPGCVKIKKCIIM

Row | SMILES | IC50 [1] [µM] | IC50 (wildtype Kras / hSOS1) [µM]
1 | Nc1nc2c(-c3c(Cl)cc4c(N5CCCCC(F)(F)C5)nc(OCC56CCCN5CCC6)nc4c3F)cccc2s1 [Compound 116, 4-(6-chloro-4-(3,3-difluoro-azepan-1-yl)-8-fluoro-2-((tetrahydro-1H-pyrrolizin-7a(5H)-yl)methoxy)quin-azolin-7-yl)benzo[d]thiazol-2-amine] | < 0.5 | < 0.5
2 | Nc1nc2c(-c3c(Cl)cc4c(N5CCCCC(F)(F)C5)nc(OCC56CCCN5CCC6)nc4c3F)ccc(F)c2s1 [Compound 117, 4-(6-chloro-4-(3,3-difluoro-azepan-1-yl)-8-fluoro-2-((tetrahydro-1H-pyrrolizin-7a(5H)-yl)methoxy)quin-azolin-7-yl)-7-fluorobenzo-[d]thiazol-2-amine] | < 0.5 | < 0.5
3 | CN1CCC[C@H]1COc1nc(N2CCNCC(C)(C)C2)c2cc(Cl)c(-c3cccc4sc(N)nc34)c(F)c2n1 [Compound 118, 4-(6-chloro-4-(6,6-dimethyl-1,4-diazepan-1-yl)-8-fluoro-2-(((S)-1-methylpyrrolidin-2-yl)methoxy)quinazolin-7-yl)benzo[d]thiazol-2-amine] | > 0.5 | > 0.5
4 | CN1CCC[C@H]1COc1nc(N2CCCC(F)(F)CC2)c2cc(Cl)c(-c3cccc4sc(N)nc34)c(F)c2n1 [Compound 119, 4-(6-chloro-4-(4,4-difluoro-azepan-1-yl)-8-fluoro-2-(((S)-1-methylpyrrolidin-2-yl)methoxy)quinazolin-7-yl)-benzo[d]thiazol-2-amine] | > 0.5 | < 0.5
5 | Nc1nc2c(-c3c(Cl)cc4c(N5CCNCC(F)(F)C5)nc(OCC56CCCN5C[C@H](F)C6)nc4c3F)cccc2s1 (stereo partly drawn) [Compound 120, 4-(6-chloro-4-(6,6-difluoro-1,4-diazepan-1-yl)-8-fluoro-2-(((2R)-2-fluorotetrahydro-1H-pyrrolizin-7a(5H)-yl)-methoxy)quinazolin-7-yl)-benzo[d]thiazol-2-amine] | < 0.5 | < 0.5
6 | CO[C@@H]1C[C@@H](COc2nc(N3CCNCC(F)(F)C3)c3cc(Cl)c(-c4cccc5sc(N)nc45)c(F)c3n2)N(C)C1 [Compound 121, 4-(6-chloro-4-(6,6-difluoro-1,4-diazepan-1-yl)-8-fluoro-2-(((2S,4R)-4-methoxy-1-methylpyrrolidin-2-yl)-methoxy)quinazolin-7-yl)-benzo[d]thiazol-2-amine] | < 0.5 | < 0.5
7 | CN1CCC[C@H]1COc1nc(N2CCNCC(F)(F)C2)c2cc(Cl)c(-c3cccc4scnc34)c(F)c2n1 [Compound 122, 4-(6-chloro-4-(6,6-difluoro-1,4-diazepan-1-yl)-8-fluoro-2-(((S)-1-methylpyrrolidin-2-yl)methoxy)quinazolin-7-yl)benzo[d]thiazole] | > 0.5 | > 0.5
8 | CN1CCN(c2nc(OC[C@@H]3CCCN3C)nc3c(F)c(-c4cccc5sc(N)nc45)c(Cl)cc23)CC(F)(F)C1 [Compound 123, 4-(6-chloro-4-(6,6-difluoro-4-methyl-1,4-diazepan-1-yl)-8-fluoro-2-(((S)-1-methyl-pyrrolidin-2-yl)methoxy)-quinazolin-7-yl)benzo[d]-thiazol-2-amine] | > 0.5 | > 0.5
9 | CN1CCC[C@H]1COc1nc(N2CC3CCNC3C2)c2cc(Cl)c(-c3cccc4sc(N)nc34)c(F)c2n1 (stereo partly drawn) [Compound 124, 4-(6-chloro-8-fluoro-4-(hexahydropyrrolo[3,4-b]-pyrrol-5(1H)-yl)-2-(((S)-1-methylpyrrolidin-2-yl)meth-oxy)quinazolin-7-yl)benzo-[d]thiazol-2-amine] | > 0.5 | > 0.5

Other lines, results leading:

Row | IC50 [1] [µM] | IC50 (wildtype Kras / hSOS1) [µM] | SMILES
10 | > 0.5 | > 0.5 | CN1CCC[C@H]1COc1nc(N2CCNCC(F)(F)C2)c2cc(C#N)c(-c3cccc4sc(N)nc34)c(F)c2n1 [Compound 125, 7-(2-aminobenzo[d]thiazol-4-yl)-4-(6,6-difluoro-1,4-diazepan-1-yl)-8-fluoro-2-(((S)-1-methylpyrrolidin-2-yl)methoxy)quinazoline-6-carbonitrile]
11 | > 0.5 | < 0.5 | CO[C@H]1C[C@@H](COc2nc(N3CCNCC(F)(F)C3)c3cc(Cl)c(-c4cccc5sc(N)nc45)c(F)c3n2)N(C)C1 [Compound 126, 4-(6-chloro-4-(6,6-difluoro-1,4-diazepan-1-yl)-8-fluoro-2-(((2S,4S)-4-methoxy-1-methylpyrrolidin-2-yl)-methoxy)quinazolin-7-yl)-benzo[d]thiazol-2-amine]
12 | < 0.5 | < 0.5 | CN1CCC[C@H]1COc1nc(N2CCCNCC(F)(F)C2)c2cc(Cl)c(-c3cccc4sc(N)nc34)c(F)c2n1 [Compound 127, 4-(6-chloro-4-(3,3-difluoro-1,5-diazocan-1-yl)-8-fluoro-2-(((S)-1-methylpyrrolidin-2-yl)methoxy)quinazolin-7-yl)benzo[d]thiazol-2-amine]
13 | > 0.5 | > 0.5 | CN1CCC[C@H]1COc1nc(N2CCNCC3(CC3)C2)c2cc(Cl)c(-c3cccc4sc(N)nc34)c(F)c2n1 [Compound 128, 4-(6-chloro-8-fluoro-2-(((S)-1-methylpyrrolidin-2-yl)-methoxy)-4-(5,8-diazaspiro-[2.6]nonan-5-yl)quinazolin-7-yl)benzo[d]thiazol-2-amine]
14 | > 0.5 | < 0.5 | Nc1nc2c(-c3c(Cl)cc4c(N5CCNCC(F)(F)C5)nc(OCCCN5CCOCC5)nc4c3F)cccc2s1 [Compound 129, 4-(6-chloro-4-(6,6-difluoro-1,4-diazepan-1-yl)-8-fluoro-2-(3-morpholinopropoxy)-quinazolin-7-yl)benzo[d]-thiazol-2-amine]
15 | > 0.5 | < 0.5 | CN1C[C@@H](F)C[C@H]1COc1nc(N2CCNCC(F)(F)C2)c2cc(Cl)c(-c3cccc4sc(N)nc34)c(F)c2n1 [Compound 130, 4-(6-chloro-4-(6,6-difluoro-1,4-diazepan-1-yl)-8-fluoro-2-(((2S,4S)-4-fluoro-1-methylpyrrolidin-2-yl)meth-oxy)quinazolin-7-yl)benzo-[d]thiazol-2-amine]
16 | > 0.5 | > 0.5 | Cn1cnnc1COc1nc(N2CCNCC(F)(F)C2)c2cc(Cl)c(-c3cccc4sc(N)nc34)c(F)c2n1 [Compound 131, 4-(6-chloro-4-(6,6-difluoro-1,4-diazepan-1-yl)-8-fluoro-2-((4-methyl-4H-1,2,4-triazol-3-yl)methoxy)quin-azolin-7-yl)benzo[d]thiazol-2-amine]
17 | > 0.5 | > 0.5 | CN1CCC[C@H]1COc1nc(N2CCCC3(CNC3)C2)c2cc(Cl)c(-c3cccc4sc(N)nc34)c(F)c2n1 [Compound 132, 4-(6-chloro-8-fluoro-2-(((S)-1-methylpyrrolidin-2-yl)-methoxy)-4-(2,6-diazaspiro-[3.5]nonan-6-yl)quinazolin-7-yl)benzo[d]thiazol-2-amine]
18 | < 0.5 | < 0.5 | Nc1nc2c(-c3c(Cl)cc4c(N5CCNCC(F)(F)C5)nc(OC[C@@]56CCCN5C[C@H](F)C6)nc4c3F)ccc(F)c2s1 [Compound 133, 4-(6-chloro-4-(6,6-difluoro-1,4-diazepan-1-yl)-8-fluoro-2-(((2R,7aS)-2-fluorotetrahydro-1H-pyrrolizin-7a(5H)-yl)methoxy)quinazolin-7-yl)-7-fluorobenzo[d]thiazol-2-amine]
19 | > 0.5 | < 0.5 | CN1CCC(COc2nc(N3CCNCC(F)(F)C3)c3cc(Cl)c(-c4cccc5sc(N)nc45)c(F)c3n2)CC1 [Compound 134, 4-(6-chloro-4-(6,6-difluoro-1,4-diazepan-1-yl)-8-fluoro-2-((1-methylpiperidin-4-yl)-methoxy)quinazolin-7-yl)-benzo[d]thiazol-2-amine]
20 | > 0.5 | > 0.5 | CN(C)C1CN(c2nc(N3CCNCC(F)(F)C3)c3cc(Cl)c(-c4cccc5sc(N)nc45)c(F)c3n2)C1 [Compound 135, 4-(6-chloro-4-(6,6-difluoro-1,4-diazepan-1-yl)-2-(3-(dimethylamino)azetidin-1-yl)-8-fluoroquinazolin-7-yl)-benzo[d]thiazol-2-amine]
